Measured values from ChEMBL document CHEMBL2375325, “Anti-neuroinflammatory properties of synthetic cryptolepine in human neuroblastoma cells: possible involvement of NF-κB and p38 MAPK inhibition” (Eur J Med Chem, 2013).
The source made the active and inactive calls. The rule behind the calls is not given here.

Experiments:
[1] = target: T1, MAP kinase p38 (Homo sapiens) (UniProt O15264+Q15759+Q16539+P53778); assay: Inhibition of p38 MAPK in human SK-N-SH cells assessed as inhibition of IL1beta-induced MAPKAPK2 phosphorylation preincubated for 30 mins prior to IL1beta-stimulation measured after 1 hr by Western blotting analysis; assay type: cell-based
[2] = target: T1, MAP kinase p38 (Homo sapiens); assay: Inhibition of IL1beta-induced p38 MAPK phosphorylation in human SK-N-SH cells at 10 to 20 uM preincubated for 30 mins prior to IL1beta-stimulation measured after 1 hr by Western blotting analysis; assay type: cell-based
SK-N-SH [3] = assay: Inhibition of IL1beta-induced IkappaB phosphorylation in human SK-N-SH cells at 2.5 to 20 uM after 15 mins by ELISA; assay type: cell-based
[4] = target: Transcription factor p65 (Homo sapiens) (UniProt Q04206); assay: Inhibition of IL1beta-induced NFkappaB p65 nuclear translocation in human SK-N-SH cells after 15 mins by ELISA; assay type: cell-based
Chain of Transcription factor p65 (Homo sapiens) (Q04206 whole entry): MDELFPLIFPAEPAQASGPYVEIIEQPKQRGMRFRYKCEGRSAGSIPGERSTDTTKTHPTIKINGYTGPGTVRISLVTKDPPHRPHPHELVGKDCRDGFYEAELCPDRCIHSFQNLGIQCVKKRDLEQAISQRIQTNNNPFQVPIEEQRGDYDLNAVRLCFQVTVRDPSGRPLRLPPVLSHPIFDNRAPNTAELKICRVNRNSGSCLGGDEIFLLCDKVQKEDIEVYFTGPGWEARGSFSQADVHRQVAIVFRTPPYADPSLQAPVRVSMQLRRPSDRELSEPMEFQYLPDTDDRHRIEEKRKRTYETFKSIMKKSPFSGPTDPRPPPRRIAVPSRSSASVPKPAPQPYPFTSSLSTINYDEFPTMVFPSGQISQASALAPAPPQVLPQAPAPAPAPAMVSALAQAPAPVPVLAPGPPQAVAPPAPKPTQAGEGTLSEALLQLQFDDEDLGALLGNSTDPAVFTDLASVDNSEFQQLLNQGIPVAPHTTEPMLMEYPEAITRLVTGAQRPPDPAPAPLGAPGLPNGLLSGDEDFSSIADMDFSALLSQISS

SK-N-SH [5] = assay: Inhibition of microsomal PGES-1 gene expression in IL1beta-stimulated human SK-N-SH cells at 10 to 20 uM preincubated for 30 mins prior to IL1beta-stimulation measured after 4 hrs by qPCR analysis; assay type: functional, cell-based
SK-N-SH [6] = assay: Inhibition of microsomal PGES-1 gene expression in IL1beta-stimulated human SK-N-SH cells at 5 uM preincubated for 30 mins prior to IL1beta-stimulation measured after 4 hrs by qPCR analysis; assay type: functional, cell-based
SK-N-SH [7] = assay: Inhibition of microsomal PGES-1 gene expression in IL1beta-stimulated human SK-N-SH cells at 2.5 uM preincubated for 30 mins prior to IL1beta-stimulation measured after 4 hrs by qPCR analysis; assay type: functional, cell-based
SK-N-SH [8] = assay: Inhibition of microsomal PGES-1 protein expression in IL1beta-stimulated human SK-N-SH cells at 5 uM after 24 hrs by Western blotting analysis; assay type: functional, cell-based
SK-N-SH [9] = assay: Inhibition of microsomal PGES-1 protein expression in IL1beta-stimulated human SK-N-SH cells at 2.5 uM after 24 hrs by Western blotting analysis; assay type: functional, cell-based
SK-N-SH [10] = assay: Inhibition of COX2 gene expression in IL1beta-stimulated human SK-N-SH cells at 10 to 20 uM preincubated for 30 mins prior to IL1beta-stimulation measured after 4 hrs by qPCR analysis; assay type: functional, cell-based
SK-N-SH [11] = assay: Inhibition of COX2 protein expression in IL1beta-stimulated human SK-N-SH cells at 5 to 20 uM after 24 hrs by Western blotting analysis; assay type: functional, cell-based
SK-N-SH [12] = assay: Inhibition of COX2 protein expression in IL1beta-stimulated human SK-N-SH cells at 2.5 uM after 24 hrs by Western blotting analysis relative to IL1beta-treated control; assay type: functional, cell-based
SK-N-SH [13] = assay: Cytotoxicity against human SK-N-SH cells after 24 hrs by ATP assay; assay type: cell-based
SK-N-SH [14] = assay: Antiinflammatory activity against human SK-N-SH cells assessed as inhibition of IL1beta-induced IL6 production at 2.5 to 20 uM preincubated for 30 mins prior to IL1beta-stimulation measured after 24 hrs by ELISA; assay type: functional, cell-based
SK-N-SH [15] = assay: Antiinflammatory activity against human SK-N-SH cells assessed as inhibition of IL1beta-induced TNFalpha production at 2.5 to 20 uM preincubated for 30 mins prior to IL1beta-stimulation measured after 24 hrs by ELISA; assay type: functional, cell-based
SK-N-SH [16] = assay: Antiinflammatory activity against human SK-N-SH cells assessed as inhibition of IL1beta-induced PGE2 production preincubated for 30 mins prior to IL1beta-stimulation measured after 24 hrs by enzyme immunoassay; assay type: functional, cell-based
SK-N-SH [17] = assay: Inhibition of microsomal PGES-1 protein expression in IL1beta-stimulated human SK-N-SH cells at 10 to 20 uM after 24 hrs by Western blotting analysis; assay type: functional, cell-based

For `C[n+]1c2ccccc2cc2[n-]c3ccccc3c21.Cl` [CRYPTOLEPINE HYDROCHLORIDE], the inhibition [1] was “Dose-dependent effect”, the inhibition [2] was “Active” and the inhibition (SK-N-SH [3]) was “inactive”. The inhibition [4] was “Dose-dependent effect”, the inhibition (SK-N-SH [5]) was “Active” and the inhibition (SK-N-SH [6]) was “Active”. For the same compound, the inhibition (SK-N-SH [7]) was “inactive”, the inhibition (SK-N-SH [8]) was “inactive” and the inhibition (SK-N-SH [9]) was “inactive”. The inhibition (SK-N-SH [10]) was “Active”, the inhibition (SK-N-SH [11]) was “Active” and the inhibition (SK-N-SH [12]) was “inactive”. The Activity (SK-N-SH [13]) was “Non-toxic”, the Activity (SK-N-SH [14]) was “Active” and the Activity (SK-N-SH [15]) was “Active”. For the same compound, the Activity (SK-N-SH [16]) was “Dose-dependent effect” and the inhibition (SK-N-SH [17]) was “Active”.
